# Read-outs that look alike come from different tables or passages of the source.
# How the values were obtained:
# [1] = tested on: Cy5-2DCS model fully base paired (RNA, hairpin) GGGUUUAAUUAGAUACGAAAGUAUCUAAUUGGAUCC; assay: microscale thermophoresis; settings: no saturable binding
# [2] = tested on: Cy5-2DCS model with two A bulges (RNA, mismatch bulge abasic) GGGUUUAAUAGAUACGAAAGUACUAAUUGGAUCC; assay: microscale thermophoresis
# [3] = tested on: Cy5-5'GAU/3'CUA mimic (A bulge to AU pair) (RNA, hairpin) GUAAUGAUUACGAAAGUAAUCAUUGC; assay: microscale thermophoresis; settings: no saturable binding
# [4] = tested on: pre-miR-155 A bulge with 2-aminopurine (2AP) (RNA, mismatch bulge abasic, 2-aminopurine in place of the bulged A) GUAAUGAUUACGAAAGUAACAUUGC; assay: 2-aminopurine fluorescence titration
# [5] = tested on: Cy5-5'GAU/3'C_A mimic (minimized pre-miR-155 A bulge) (RNA, mismatch bulge abasic) GUAAUGAUUACGAAAGUAACAUUGC; assay: microscale thermophoresis
# [6] = tested on: MYC IRES fully paired control RNA (RNA, mRNA element) GGGGGCUUCGCCUCUGGCGAAGCCCUC; assay: Cy5 fluorescence titration
# [7] = tested on: Cy5-labelled MYC IRES 5'UUCG/3'ACCC 2x2 internal loop model (RNA, mRNA element) GGGGGCUUCGCCUCUGGCCCAGCCCUC; assay: Cy5 fluorescence titration
# [8] = tested on: JUN IRES A bulge model with 2AP (5'UAU/3'A_A) (RNA, mRNA element, 2-aminopurine in place of the bulged A) GCAGUAUAGGAAACUAACUGC; assay: 2-aminopurine fluorescence titration
# [9] = tested on: JUN IRES 2AP control RNA (bulge converted to base pair) (RNA, mRNA element, 2-aminopurine (position not given)) GCAGUAUAGGAAACUAUACUGC; assay: 2-aminopurine fluorescence titration
# [10] = tested on: Cy5-labelled JUN IRES model (RNA, mRNA element) GCAGUAUAGGAAACUAACUGC; assay: Cy5 fluorescence titration
# [11] = tested on: JUN IRES fully paired control (A bulge to AU pair), Cy5 (RNA, mRNA element) GCAGUAUAGGAAACUAUACUGC; assay: Cy5 fluorescence titration; settings: no saturable binding
# [12] = tested on: pre-miR-155 +U49 mutant (A bulge to AU pair) (RNA, miRNA) GGCUGUUAAUGCUAAUCGUGAUAGGGGUUUUUGCCUCCAACUGACUCCUAUCAUAUUAGCAUUAACAG; assay: competition with 2AP-labelled RNA; settings: RIBOTAC 5 µM, 2AP-labelled A bulge RNA 1 µM; mutant does not compete
# [13] = tested on: pre-miR-155 (wild type) (RNA, miRNA) GGCUGUUAAUGCUAAUCGUGAUAGGGGUUUUUGCCUCCAACUGACUCCUACAUAUUAGCAUUAACAG; assay: competition with 2AP-labelled RNA; settings: RIBOTAC 5 µM, 2AP-labelled A bulge RNA 1 µM; unlabelled pre-miR-155 as competitor
smiles,measurement,setting,value
CCCCCCCCCCCc1c(CCCCCCCCCCC)[n+](-c2c(C(C)C)cccc2C(C)C)cn1-c1c(C(C)C)cccc1C(C)C,binding,[1],no
same,Kd,[2],1200 ± 100 nM
same,binding,[3],no
same,"Kd,app","[4]; apparent, error printed as 1.2",3900 ± 1000 nM
same,Kd,[5],800 ± 100 nM
CCOC(=O)C1=C(Nc2ccccc2)S/C(=C\c2ccc(OCCOCCOCCOCCNC(=O)c3cc(NC(=O)Nc4ccc(C5=NCCN5)cc4)cc(NC(=O)Nc4ccc(C5=NCCN5)cc4)c3)c(O)c2)C1=O,binding,[6]; no saturable binding,no
same,Kd,[7],1100 ± 100 nM
CNc1nc(Nc2ccc(C3=NCCN3)cc2)nc(Nc2ccc(C3=NCCN3)cc2)n1,EC50,[8],1100 ± 200 nM
same,EC50,[9],> 50000 nM
same,Kd,[10],3200 ± 2000 nM
CCCNC(=O)CCc1c(C)n(-c2c(C(C)C)cccc2C(C)C)c[n+]1-c1c(C(C)C)cccc1C(C)C,binding,[4]; similar affinity to C1,yes
same,Kd,[5]; similar affinity to C1,1100 ± 100 nM
O=C(Nc1ccc(C2=NCCN2)cc1)Nc1cc(NC(=O)Nc2ccc(C3=NCCN3)cc2)cc(C(=O)O)c1,binding,[6],no
same,Kd,[7],2300 ± 1000 nM
CCOC(=O)C1=C(Nc2ccccc2)S/C(=C\c2ccc(OCCOCCOCCOCCNC(=O)CCNc3nc(Nc4ccc(C5=NCCN5)cc4)nc(Nc4ccc(C5=NCCN5)cc4)n3)c(O)c2)C1=O,binding,[11],no
same,EC50,[8],1800 ± 500 nM
same,Kd,[10],500 ± 200 nM
CCOC(=O)C1=C(Nc2ccccc2)S/C(=C\c2ccc(O)c(OCCOCCOCCOCCNC(=O)CCNc3nc(Nc4ccc(C5=NCCN5)cc4)nc(Nc4ccc(C5=NCCN5)cc4)n3)c2)C1=O,binding,[11],no
same,EC50,[8],3500 ± 900 nM
same,Kd,[10],400 ± 100 nM
CCOC(=O)C1=C(Nc2ccccc2)S/C(=C\c2ccc(OCCOCCOCCOCCNC(=O)CCc3c(C)n(-c4c(C(C)C)cccc4C(C)C)c[n+]3-c3c(C(C)C)cccc3C(C)C)c(O)c2)C1=O,binding,[12],no
same,Kd,[13],2200 ± 900 nM
CCOC(=O)C1=C(Nc2ccccc2)S/C(=C\c2ccc(O)c(OCCOCCOCCOCCNC(=O)c3cc(NC(=O)Nc4ccc(C5=NCCN5)cc4)cc(NC(=O)Nc4ccc(C5=NCCN5)cc4)c3)c2)C1=O,binding,[6]; no saturable binding,no
same,Kd,[7],900 ± 200 nM

# Source: paper PMC10232370 (2023)
